Source: patent US20190367567A1 (priority 2016, published 2019)
Where a SMILES comes first, the peptide text is derived from it.

Assays:
[1] = tested on: PR8 virus; set-up: species or system influenza A virus
[2] = tested on: human H1N1 influenza A virus A/Puerto Rico/8/1934 (PR8); conditions: human virus A/Puerto Rico/8/1934 (PR8)
[3] = tested on: human erythrocytes
[4] = target: H1 HA of A/Puerto Rico/8/1934 H1N1 influenza virus (influenza A virus A/Puerto Rico/8/1934 H1N1) (UniProt P03452); assay: cell-based or functional assay

Compound: OVA257-264 peptide [OVA peptide]
- integrity of virus particles by electron microscopy [1]: appear intact

Compound: CC[C@H](C)[C@H](N)C(=O)N1CCC[C@H]1C(=O)N[C@@H](CC(C)C)C(=O)N[C@@H](CCCNC(=N)N)C(=O)NCC(=O)N[C@@H](C)C(=O)N[C@@H](Cc1ccccc1)C(=O)N[C@H](C(=O)N[C@@H](CC(N)=O)C(=O)NCC(=O)N[C@@H](CCCNC(=N)N)C(=O)N[C@@H](Cc1c[nH]c2ccccc12)C(=O)N[C@@H](CC(=O)O)C(=O)N[C@@H](CO)C(=O)N[C@@H](CCC(N)=O)C(=O)N[C@@H](CS)C(=O)N[C@@H](Cc1c[nH]cn1)C(=O)N[C@@H](CCCNC(=N)N)C(=O)N[C@@H](Cc1ccccc1)C(=O)N[C@@H](CO)C(=O)N[C@@H](CC(N)=O)C(=O)NCC(=O)N[C@@H](C)C(=O)N[C@H](C(=O)N[C@@H](C)C(=O)N[C@@H](CS)C(=O)N[C@@H](C)C(=O)O)[C@@H](C)CC)[C@@H](C)CC [Urumin] (H-IPLRGAFINGRWDSQCHRFSNGAIACA-OH)
- IC50 [2]: 3.8 µM
- concentration reaching a 20% level of toxicity [3]: 1430 µM
- toxicity to human erythrocytes (hemolysis) [3]: no toxicity

Compound: CC[C@H](C)[C@H](NC(=O)CNC(=O)[C@H](CC(C)C)NC(=O)CNC(=O)[C@H](C)NC(=O)CNC(=O)[C@H](CCCCN)NC(=O)[C@H](C)NC(=O)[C@@H](NC(=O)CNC(=O)[C@@H](NC(=O)[C@H](C)NC(=O)[C@@H](NC(=O)[C@H](CC(=O)O)NC(=O)[C@H](CCCCN)NC(=O)[C@H](CC(C)C)NC(=O)[C@H](CCCCN)NC(=O)[C@@H](NC(=O)[C@@H](NC(=O)[C@H](Cc1ccccc1)NC(=O)[C@@H](N)CO)C(C)C)[C@@H](C)O)C(C)C)[C@@H](C)CC)C(C)C)C(=O)N[C@@H](CC(C)C)C(=O)N[C@@H](CCCCN)C(=O)N[C@H](C(=O)N[C@@H](CC(C)C)C(=O)N[C@H](C(=O)N[C@@H](CS)C(=O)N[C@@H](CCCCN)C(=O)N[C@@H](CC(C)C)C(=O)N[C@@H](CC(=O)O)C(=O)N[C@@H](CC(N)=O)C(=O)N[C@@H](CO)C(=O)N[C@@H](CS)C(=O)N[C@@H](C)C(=O)O)[C@@H](C)O)[C@@H](C)O [Peptide 28] (H-SFVTKLKDVAIGVAKGAGLGILKTLTCKLDNSCA-OH)
- hemolytic activity ([3]; at 10 μM): hemolytic activity

Compound: Urumin (peptide)
- IC50, plaque assay against PR8 virus [4]: 3.8 µM
